From ChEMBL document CHEMBL1145266, “Design, synthesis, and biological activity of potent and selective inhibitors of mast cell tryptase” (Bioorg Med Chem Lett, 2005) come the findings set out here.

The target in data set [1] is T1, Tryptase beta-1 (Homo sapiens, UniProt Q15661). The data set can be described thus: In vitro inhibitory activity against tryptase.
Data set [2] is described as follows: Bioavailability in rat using combiPK assay (dose 1 mg/kg i.v.). As to conditions: in vivo, iv. Format: ADME, organism-based.
Data set [3] in a line: Bioavailability in rat (combiPK assay) (dose 2 mg/kg p.o.). As to conditions: in vivo, po. The format is ADME, organism-based.
Data set [4] can be described thus: Bioavailability in rat using combiPK (dose of 2 mg/kg p.o.). The conditions noted are these: in vivo, po. The format is ADME, organism-based.
The nature of data set [5]: Bioavailability using combiPK assay in rats at a dose of 1 mg/kg administered intravenously. The format is ADME, organism-based. As to conditions: rat, in vivo, iv, read-out: Bioavailabiility.
Data set [6] can be described thus: Bioavailability in rat using combiPK (dose 1 mg/kg i.v.). The format is ADME, organism-based. As to conditions: in vivo, iv.
Data set [7] is described as follows: Inhibitory concentration against Thrombin was determined.
Data set [8] concerns the target T1, Tryptase beta-1. The data set can be described thus: Inhibition concentration against beta tryptase was determined.
The target in data set [9] is T1, Tryptase beta-1. The data set can be described thus: Inhibitory concentration against alpha tryptase was determined.
Data set [10] can be described thus: Inhibitory concentration against Trypsin was determined.
Data set [11] in a line: Inhibitory concentration against Factor Xa was determined.
Data set [12] is described as follows: Inhibitory concentration against Chymase was determined.
A short description of data set [13]: Bioavailability using combiPK assay in rats at a dose of 2 mg/kg administered orally. The format is ADME, organism-based. The conditions noted are these: rat, in vivo, po, read-out: Bioavailabiility.

Bounds are passed on as bounds.

T1 sequence (Q15661 whole entry): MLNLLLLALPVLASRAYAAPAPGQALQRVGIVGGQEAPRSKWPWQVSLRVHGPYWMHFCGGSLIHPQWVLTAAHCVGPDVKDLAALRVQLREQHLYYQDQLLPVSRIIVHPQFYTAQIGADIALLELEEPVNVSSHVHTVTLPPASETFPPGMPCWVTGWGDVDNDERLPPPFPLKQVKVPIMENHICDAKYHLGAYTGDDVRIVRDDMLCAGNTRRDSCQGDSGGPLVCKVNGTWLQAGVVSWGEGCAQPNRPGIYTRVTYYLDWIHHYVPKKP

For orientation: Ki means a dissociation constant, usually derived from enzyme kinetics or from competition with a known ligand. The low end stands for higher affinity, the high end for lower affinity. In data set [1], `COCCn1cc(C(=O)N2CCC(c3cccc(CN)c3)CC2)c2ccccc21` gave a Ki of 57 nM. With `CCCCn1cc(C(=O)N2CCC(c3cccc(CN)c3)CC2)c2ccccc21.O=C(O)C(F)(F)F`, in data set [1], the inhibitory constant (Ki) stood at 49 nM. In addition, the bioavailability in data set [2] and in [3] was 9.3% in each case. The molecule `NCc1cccc(C2CCN(C(=O)c3cn(CC4CCCCC4)c4ccccc34)CC2)c1` displayed a Ki in data set [1] of 497 nM.

Molecule `Cc1ccc2c(C(=O)N3CCC(c4cccc(CN)c4)CC3)c[nH]c2c1` returned an inhibitory constant (Ki) in data set [1] of over 2000 nM.

`CC(=O)n1cc(C(=O)N2CCC(c3cccc(CN)c3)CC2)c2ccccc21` yielded a Ki in data set [1] of 240 nM. Same read-out and setting: with `COCCn1cc(C(=O)N2CCC(c3cccc(CN)c3)CC2)c2cccc(C)c21` the figure was 32 nM. The same measure, in the same setting: to `CC(C)n1cc(C(=O)N2CCC(c3cccc(CN)c3)CC2)c2ccccc21` belongs 310 nM. With `Cc1cccc2c(C(=O)N3CCC(c4cccc(CN)c4)CC3)c[nH]c12.O=C(O)C(F)(F)F`, in data set [1], the Ki is 61 nM. The bioavailability in data set [4] and in data set [5] was 19% each time. Molecule `NCc1cccc(C2CCN(C(=O)c3cn(CC4CC4)c4ccccc34)CC2)c1` came in with a Ki in data set [1] of 141 nM.

Regarding `CCCn1cc(C(=O)N2CCC(c3cccc(CN)c3)CC2)c2ccccc21`, the Ki in data set [1] was 185 nM. With `NCc1cccc(C2CCN(C(=O)c3cn(S(=O)(=O)c4ccccc4)c4ccccc34)CC2)c1.O=C(O)C(F)(F)F`, the bioavailability in data set [6] and in data set [4] was 17% each time. Moreover, in data set [1], the Ki was 128 nM. `CC(C)Cn1cc(C(=O)N2CCC(c3cccc(CN)c3)CC2)c2ccccc21` returned a Ki in data set [1] of 116 nM. For the molecule `NCc1cccc(C2CCN(C(=O)c3cn(-c4nccs4)c4ccccc34)CC2)c1`, the Ki in [1] came to 373 nM. On the same count and under the same terms, to `NCc1cccc(C2CCN(C(=O)c3c[nH]c4c(F)cccc34)CC2)c1` belongs 368 nM. The same measure, in the same setting: with `Cc1ccc2[nH]cc(C(=O)N3CCC(c4cccc(CN)c4)CC3)c2c1` the figure was 101 nM; with `CCCn1cc(C(=O)N2CCC(c3cccc(CN)c3)CC2)c2cccc(C)c21`, 41 nM; with `CCCCCCn1cc(C(=O)N2CCC(c3cccc(CN)c3)CC2)c2ccccc21`, 125 nM. Still for that read-out and setting: with `Cn1cc(C(=O)N2CCC(c3cccc(CN)c3)CC2)c2ccccc21` the figure was 155 nM; with `NCc1cccc(C2CCN(C(=O)c3cn(C(=O)c4cccs4)c4ccccc34)CC2)c1`, 246 nM; with `CS(=O)(=O)n1cc(C(=O)N2CCC(c3cccc(CN)c3)CC2)c2ccccc21`, 162 nM. `CCn1cc(C(=O)N2CCC(c3cccc(CN)c3)CC2)c2cccc(C)c21.O=C(O)C(F)(F)F`: the Ki in [1] is 41 nM. In addition, the bioavailability in data set [2] and in [3] was 26% in each case. For orientation: IC50 means the concentration at which inhibition is half-maximal. Regarding `CCCCn1cc(C(=O)N2CCC(c3cccc(CN)c3)CC2)c2cccc(C)c21.O=C(O)C(F)(F)F`, the IC50 in data set [7] was over 10000 nM; in data set [8], 68 nM; in data set [9], 3690 nM; in data set [10], over 10000 nM; in data set [11], over 10000 nM; in data set [12] it was over 10000 nM. Further, in data set [1], the Ki was 68 nM. The molecule also returned a bioavailability in data set [2] of 33%. `NCc1cccc(C2CCN(C(=O)c3cn(-c4cccnc4)c4ccccc34)CC2)c1` showed a Ki in data set [1] of 197 nM. On the same count and under the same terms, with `Cc1cccc2[nH]cc(C(=O)N3CCC(c4cccc(CN)c4)CC3)c12` the figure was over 2000 nM.

As to `NCc1cccc(C2CCN(C(=O)c3c[nH]c4ccccc34)CC2)c1.O=C(O)C(F)(F)F`, the bioavailability in data set [13] and in data set [6] was 22% each time. Besides, the Ki in data set [1] worked out at 290 nM.

On to `CCn1cc(C(=O)N2CCC(c3cccc(CN)c3)CC2)c2ccccc21.O=C(O)C(F)(F)F`, for which the affinity in [1] corresponds to a Ki of 124 nM. Moreover, the bioavailability in data set [2] and in data set [3] was 11% each time.
